In patent US20260055079A1, “PHTHALAZINONE COMPOUNDS AS PARP7 INHIBITORS” (AZKARRA THERAPEUTICS, INC., priority 2022, published 2026):
Where two headings read alike, the source gives them in different places.

Tests used:
His-GST-PARP7 = His-GST-PARP7 (Homo sapiens (Human), UniProt Q7Z3E1); assay: PARP7 biochemical assay; details: read-out: PARP7 IC50
PARP1 = PARP1 (Homo sapiens (Human), UniProt P09874); assay: PARP1 biochemical assay
PARP2 = PARP2 (Homo sapiens (Human), UniProt Q9UGN5); assay: PARP2 biochemical assay; details: read-out: PARP2 IC50
Sequence of PARP2 (Q9UGN5 whole entry): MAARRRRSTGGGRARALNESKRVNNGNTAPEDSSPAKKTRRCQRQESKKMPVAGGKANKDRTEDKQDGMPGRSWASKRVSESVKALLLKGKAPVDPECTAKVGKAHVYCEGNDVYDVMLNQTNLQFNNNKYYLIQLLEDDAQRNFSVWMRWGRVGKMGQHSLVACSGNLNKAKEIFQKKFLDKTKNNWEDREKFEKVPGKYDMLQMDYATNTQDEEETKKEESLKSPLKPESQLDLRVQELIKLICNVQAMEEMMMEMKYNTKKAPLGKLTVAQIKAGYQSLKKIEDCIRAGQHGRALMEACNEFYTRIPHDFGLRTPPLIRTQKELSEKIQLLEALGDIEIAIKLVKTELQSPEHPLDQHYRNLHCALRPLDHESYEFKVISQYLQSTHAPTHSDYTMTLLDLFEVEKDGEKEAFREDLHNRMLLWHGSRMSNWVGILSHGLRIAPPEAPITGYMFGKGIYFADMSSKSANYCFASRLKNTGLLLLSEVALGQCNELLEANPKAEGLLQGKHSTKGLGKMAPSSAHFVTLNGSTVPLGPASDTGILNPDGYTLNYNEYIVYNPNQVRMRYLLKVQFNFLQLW

[1] = system: NCI-H1373 (human lung adenocarcinoma) cells; assay: Cell proliferation assay (CellTiter-Glo), NCI-H1373; type: cell-based; details: 6 days, CellTiter-Glo, read-out: NCI-H1373 GI50
[2] = system: HARA (human lung squamous cell carcinoma) cells; assay: Cell proliferation assay (CellTiter-Glo), HARA; type: cell-based; details: 6 days, CellTiter-Glo, read-out: HARA GI50
[3] = system: CT26 (mouse colon adenocarcinoma) cells; assay: Cell proliferation assay (CellTiter-Glo), CT26; type: cell-based; details: Mus musculus, CT26, 144 h, 6 days

Sequence of PARP1 (P09874 whole entry, species assumed): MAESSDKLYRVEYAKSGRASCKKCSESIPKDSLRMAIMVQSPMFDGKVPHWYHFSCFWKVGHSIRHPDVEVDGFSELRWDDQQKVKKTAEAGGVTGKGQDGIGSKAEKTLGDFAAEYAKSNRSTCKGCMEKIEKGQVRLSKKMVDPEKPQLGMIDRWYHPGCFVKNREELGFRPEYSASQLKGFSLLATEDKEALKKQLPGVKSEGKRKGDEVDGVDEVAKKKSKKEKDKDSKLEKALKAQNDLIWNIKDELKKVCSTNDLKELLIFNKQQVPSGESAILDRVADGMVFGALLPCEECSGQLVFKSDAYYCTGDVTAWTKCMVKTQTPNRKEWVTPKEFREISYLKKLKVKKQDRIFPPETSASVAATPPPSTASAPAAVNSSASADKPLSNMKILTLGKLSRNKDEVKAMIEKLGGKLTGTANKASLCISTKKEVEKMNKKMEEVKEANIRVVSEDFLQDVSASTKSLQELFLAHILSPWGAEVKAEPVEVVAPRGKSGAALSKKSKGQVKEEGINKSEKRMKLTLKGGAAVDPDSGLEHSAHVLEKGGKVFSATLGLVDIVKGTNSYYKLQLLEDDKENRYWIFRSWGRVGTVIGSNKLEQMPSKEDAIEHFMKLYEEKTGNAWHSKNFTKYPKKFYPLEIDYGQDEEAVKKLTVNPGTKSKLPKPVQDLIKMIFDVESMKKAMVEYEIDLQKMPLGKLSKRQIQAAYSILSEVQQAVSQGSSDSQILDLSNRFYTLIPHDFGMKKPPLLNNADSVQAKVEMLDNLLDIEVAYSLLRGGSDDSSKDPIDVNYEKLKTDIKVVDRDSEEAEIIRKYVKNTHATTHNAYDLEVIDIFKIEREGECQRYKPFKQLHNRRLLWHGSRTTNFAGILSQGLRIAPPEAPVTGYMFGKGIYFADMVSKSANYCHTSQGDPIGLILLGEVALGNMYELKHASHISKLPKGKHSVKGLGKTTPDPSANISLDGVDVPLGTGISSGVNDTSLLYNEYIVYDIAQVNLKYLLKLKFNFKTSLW
Sequence of His-GST-PARP7 (Q7Z3E1 whole entry): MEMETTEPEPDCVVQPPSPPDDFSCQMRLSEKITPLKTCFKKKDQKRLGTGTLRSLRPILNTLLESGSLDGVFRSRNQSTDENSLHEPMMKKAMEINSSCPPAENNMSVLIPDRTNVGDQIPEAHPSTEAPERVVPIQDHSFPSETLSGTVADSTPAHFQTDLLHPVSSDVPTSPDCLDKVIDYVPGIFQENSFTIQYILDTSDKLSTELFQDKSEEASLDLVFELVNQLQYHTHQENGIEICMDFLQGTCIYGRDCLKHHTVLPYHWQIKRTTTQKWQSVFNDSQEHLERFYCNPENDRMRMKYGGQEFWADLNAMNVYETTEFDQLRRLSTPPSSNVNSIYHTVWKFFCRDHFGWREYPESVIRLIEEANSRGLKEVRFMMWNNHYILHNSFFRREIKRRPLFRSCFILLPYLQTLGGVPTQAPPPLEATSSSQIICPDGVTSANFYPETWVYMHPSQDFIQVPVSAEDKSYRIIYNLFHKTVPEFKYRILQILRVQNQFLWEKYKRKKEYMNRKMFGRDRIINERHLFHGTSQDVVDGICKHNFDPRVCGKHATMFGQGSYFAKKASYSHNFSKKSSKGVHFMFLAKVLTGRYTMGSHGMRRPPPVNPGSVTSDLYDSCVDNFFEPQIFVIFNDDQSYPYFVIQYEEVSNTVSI

Compound	IC50 (His-GST-PARP7) [nM]	IC50 (PARP1) [nM]	IC50 (PARP2) [nM]	GI50 [1] [nM]	GI50 [2] [nM]	GI50 ([1]; Homo sapiens, NCI-H1373, 144 h) [nM]	GI50 ([2]; Homo sapiens, 144 h) [nM]	GI50 [3] [nM]
6-(4-(5-((7-cyclobutoxy-4-oxo-3,4-dihydrophthalazin-1-yl)methyl)-2-fluorobenzoyl)piperazin-1-yl)-4-methoxynicotinonitrile [Example 137]	< 50	> 2000	100 to 500	< 100	1000 to 5000			
C#CC(C)Oc1ccc2c(=O)[nH]nc(Cc3ccc(F)c(C(=O)N4CCN(c5ccc(C#N)cn5)CC4)c3)c2c1 (stereo not shown) [Example 8, 6-(4-(5-((7-(But-3-yn-2-yloxy)-4-oxo-3,4-dihydrophthalazin-1-yl)methyl)-2-fluorobenzoyl)piperazin-1-yl)nicotinonitrile]	< 50	100 to 500	100 to 500			< 100	1000 to 5000	< 100
CC#Cc1ccc2c(=O)[nH]nc(Cc3ccc(F)c(C(=O)N4CCn5c(nnc5C(F)(F)F)C4)c3)c2c1 [Example 65, 4-(4-fluoro-3-(3-(trifluoromethyl)-5,6,7,8-tetrahydro-[1,2,4]triazolo[4,3-a]pyrazine-7-carbonyl)benzyl)-6-(prop-1-yn-1-yl)phthalazin-1(2H)-one]	< 50	50 to 100	50 to 100			100 to 1000		
COc1cc2c(Cc3cccc(C(=O)N4CCN(c5ccc(C#N)cn5)CC4)c3)n[nH]c(=O)c2cc1F [Example 82, 6-(4-(3-((6-Fluoro-7-methoxy-4-oxo-3,4-dihydrophthalazin-1-yl)methyl)benzoyl)piperazin-1-yl)nicotinonitrile]	< 50	< 50	< 50			< 100	100 to 1000	< 100
CC#Cc1cc(C(F)(F)F)c2c(=O)[nH]nc(Cc3ccc(F)c(C(=O)N4CCN(c5ccc(C#N)cn5)CC4)c3)c2c1 [Example 84, 6-(4-(2-Fluoro-5-((4-oxo-7-(prop-1-yn-1-yl)-5-(trifluoromethyl)-3,4-dihydrophthalazin-1-yl)methyl)benzoyl)piperazin-1-yl)nicotinonitrile]	< 50	100 to 500	100 to 500			< 100	1000 to 5000	> 5000
CC#Cc1ccc2c(=O)[nH]nc(Cc3ccc(F)c(C(=O)N4CCN(c5ccc(C#N)cn5)CC4)c3)c2c1C [Example 86, 6-(4-(2-Fluoro-5-((8-methyl-4-oxo-7-(prop-1-ynyl)-3,4-dihydrophthalazin-1-yl)methyl)benzoyl)piperazin-1-yl)nicotinonitrile]	< 50	50 to 100	500 to 2000			< 100	1000 to 5000	> 5000
N#Cc1ccc(N2CCN(C(=O)c3cccc(Cc4n[nH]c(=O)c5c(F)c(F)ccc45)c3)CC2)nc1 [Example 87, 6-(4-(3-((5,6-Difluoro-4-oxo-3,4-dihydrophthalazin-1-yl)methyl)benzoyl)piperazin-1-yl)nicotinonitrile]	< 50	< 50	< 50			< 100	100 to 1000	100 to 1000
N#Cc1ccc(N2CCN(C(=O)c3cc(Cc4n[nH]c(=O)c5ccc(OC6CCC6)cc45)ccc3F)CC2)nc1C(F)(F)F [Example 135, 6-(4-(5-((7-cyclobutoxy-4-oxo-3,4-dihydrophthalazin-1-yl)methyl)-2-fluorobenzoyl)piperazin-1-yl)-2-(trifluoromethyl)nicotinonitrile]	50 to 100					100 to 1000	> 5000	> 5000
Cc1cc(C#N)cnc1N1CCN(C(=O)c2cc(Cc3n[nH]c(=O)c4ccc(OC5CCC5)cc34)ccc2F)CC1 [Example 138, 6-(4-(5-((7-cyclobutoxy-4-oxo-3,4-dihydrophthalazin-1-yl)methyl)-2-fluorobenzoyl)piperazin-1-yl)-5-methylnicotinonitrile]	< 50					100 to 1000	1000 to 5000	> 5000
N#Cc1ccc(-c2nnc3n2CCN(C(=O)c2cc(Cc4n[nH]c(=O)c5ccc(OC6CCC6)cc45)ccc2F)C3)nc1 [Example 139, 6-(7-(5-((7-cyclobutoxy-4-oxo-3,4-dihydrophthalazin-1-yl)methyl)-2-fluorobenzoyl)-5,6,7,8-tetrahydro-[1,2,4]triazolo[4,3-a]pyrazin-3-yl)nicotinonitrile]	< 50					100 to 1000	1000 to 5000	> 5000
N#Cc1ccc(N2CC3(CN(C(=O)c4cc(Cc5n[nH]c(=O)c6ccc(OC7CCC7)cc56)ccc4F)C3)C2)nc1 [Example 148, 6-(6-(5-((7-cyclobutoxy-4-oxo-3,4-dihydrophthalazin-1-yl)methyl)-2-fluorobenzoyl)-2,6-diazaspiro[3.3]heptan-2-yl)nicotinonitrile]	500 to 2000					> 5000	> 5000	> 5000
N#Cc1ccc(N2CCCC23CN(C(=O)c2cc(Cc4n[nH]c(=O)c5ccc(OC6CCC6)cc45)ccc2F)C3)nc1 [Example 149, 6-(2-(5-((7-cyclobutoxy-4-oxo-3,4-dihydrophthalazin-1-yl)methyl)-2-fluorobenzoyl)-2,5-diazaspiro[3.4]octan-5-yl)nicotinonitrile]	500 to 2000					> 5000	> 5000	> 5000
N#Cc1cnc(N2CCN(C(=O)c3cc(Cc4n[nH]c(=O)c5ccc(OC6CCC6)cc45)ccc3F)CC2)nc1 [Example 154, 2-(4-(5-((7-cyclobutoxy-4-oxo-3,4-dihydrophthalazin-1-yl)methyl)-2-fluorobenzoyl)piperazin-1-yl)pyrimidine-5-carbonitrile]	< 50					< 100	1000 to 5000	1000 to 5000
O=C(c1cc(Cc2n[nH]c(=O)c3ccc(OC4CCC4)cc23)ccc1F)N1CCN(c2cc(C(F)(F)F)ccn2)CC1 [Example 156, 6-cyclobutoxy-4-(4-fluoro-3-(4-(4-(trifluoromethyl)pyridin-2-yl)piperazine-1-carbonyl)benzyl)phthalazin-1(2H)-one]	< 50					100 to 1000	1000 to 5000	> 5000
O=C(c1cc(Cc2n[nH]c(=O)c3ccc(OC4CCC4)cc23)ccc1F)N1CCN(c2ncc(C(F)F)cn2)CC1 [Example 157, 6-Cyclobutoxy-4-(3-(4-(5-(difluoromethyl)pyrimidin-2-yl)piperazine-1-carbonyl)-4-fluorobenzyl)phthalazin-1(2H)-one]	< 50					< 100	1000 to 5000	1000 to 5000
O=C(c1cc(Cc2n[nH]c(=O)c3ccc(OC4CCC4)cc23)ccc1F)N1CCN(c2ccc(C(F)(F)F)nn2)CC1 [Example 158, 6-cyclobutoxy-4-(4-fluoro-3-(4-(6-(trifluoromethyl)pyridazin-3-yl)piperazine-1-carbonyl)benzyl)phthalazin-1(2H)-one]	< 50					1000 to 5000	> 5000	1000 to 5000
O=C(c1cc(Cc2n[nH]c(=O)c3ccc(OC4CCC4)cc23)ccc1F)N1CCN(c2ccc(C(F)(F)F)nc2)CC1 [Example 159, 6-Cyclobutoxy-4-(4-fluoro-3-(4-(6-(trifluoromethyl)pyridin-3-yl)piperazine-1-carbonyl)benzyl)phthalazin-1(2H)-one]	< 50					100 to 1000	> 5000	> 5000
N#Cc1ccc(N2CCN(C(=O)c3cccc(Cc4n[nH]c(=O)c5ccc(OC6CCC6)cc45)n3)CC2)nc1 [Example 176, 6-(4-(6-((7-Cyclobutoxy-4-oxo-3,4-dihydrophthalazin-1-yl)methyl)picolinoyl)piperazin-1-yl)nicotinonitrile]	< 50	50 to 100	100 to 500			100 to 1000	> 5000	1000 to 5000
N#Cc1ccc(N2CCN(C(=O)c3cncc(Cc4n[nH]c(=O)c5ccc(OC6CCC6)cc45)c3)CC2)nc1 [Example 177, 6-(4-(5-((7-Cyclobutoxy-4-oxo-3,4-dihydrophthalazin-1-yl)methyl)nicotinoyl)piperazin-1-yl)nicotinonitrile]	< 50	50 to 100	100 to 500			< 100	> 5000	> 5000
N#Cc1ccc(N2CCN(C(=O)c3cc(Br)cc(Cc4n[nH]c(=O)c5ccc(OC6CCC6)cc45)c3)CC2)nc1 [Example 178, 6-(4-(3-Bromo-5-((7-cyclobutoxy-4-oxo-3,4-dihydrophthalazin-1-yl)methyl)benzoyl)piperazin-1-yl)nicotinonitrile]	< 50					100 to 1000	1000 to 5000	> 5000
N#Cc1ccc(N2CCN(C(=O)c3cc(Cc4n[nH]c(=O)c5ccc(OC6CCC6)cc45)ccn3)CC2)nc1 [Example 179, 6-(4-(4-((7-Cyclobutoxy-4-oxo-3,4-dihydrophthalazin-1-yl)methyl)picolinoyl)piperazin-1-yl)nicotinonitrile]	< 50					< 100	> 5000	> 5000
N#Cc1ccc(N2CCN(C(=O)c3ccnc(Cc4n[nH]c(=O)c5ccc(OC6CCC6)cc45)c3)CC2)nc1 [Example 180, 6-(4-(2-((7-Cyclobutoxy-4-oxo-3,4-dihydrophthalazin-1-yl)methyl)isonicotinoyl)piperazin-1-yl)nicotinonitrile]	< 50					< 100	> 5000	1000 to 5000
